Results as given in the supplement of paper PMC10307832.

What was measured:
Test in all cases: relative viability (nuclei count vs DMSO), 5 days (fraction); higher = more cells survive
[1] = compound: CC1(COc2ccc3c(c2)ncn3-c2ccc3cccc(N4CCC(N)CC4)c3n2)COC1 [Crenolanib] + CC(=O)Nc1cccc(-n2c(=O)n(C3CC3)c(=O)c3c(Nc4ccc(I)cc4F)n(C)c(=O)c(C)c32)c1 [Trametinib] (partner 0.02 µM)
How it was run: (§1)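 Lung cancer cell lines were seeded in 1536-well plates and dosed by pin tool the next day, with either a single drug or a fixed anchor-drug dose combined with five library-drug doses (not always all listed) spaced in √10 steps. Five days later, one step fixed the cells and stained their nuclei (final 0.05% Triton X-100, 1% formaldehyde, 1 ug/ml Hoechst), and nuclei were counted on 4× images. Relative viability is the nuclei count in treated wells divided by the count in vehicle wells, and each value is the median of duplicate plates.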

[2] = compound: CC1(COc2ccc3c(c2)ncn3-c2ccc3cccc(N4CCC(N)CC4)c3n2)COC1 [Crenolanib] + Cc1nc(NC(=O)N2CCC[C@H]2C(N)=O)sc1-c1ccnc(C(C)(C)C(F)(F)F)c1 [Alpelisib] (partner 2 µM)
How it was run: as §1

[3] = compound: CC1(COc2ccc3c(c2)ncn3-c2ccc3cccc(N4CCC(N)CC4)c3n2)COC1 [Crenolanib] + N=C(N)NC(=N)NCCc1ccccc1 [Phenformin] (partner 250 µM)
How it was run: as §1

[4] = compound: O=C1NC(=O)[C@@H](c2cn3c4c(cccc24)CCC3)[C@@H]1c1c[nH]c2ccccc12 [Tivantinib] + O=C(CCCCCCC(=O)Nc1ccccc1)NO [Vorinostat] (partner 1 µM)
How it was run: as §1

| Cell Line | relative viability ([1]; first compound 0.01 µM) | relative viability ([1]; first compound 0.03162 µM) | relative viability ([1]; first compound 0.1 µM) | relative viability ([1]; first compound 0.3162 µM) | relative viability ([1]; first compound 1 µM) | relative viability ([2]; first compound 0.01 µM) | relative viability ([2]; first compound 0.03162 µM) | relative viability ([2]; first compound 0.1 µM) | relative viability ([2]; first compound 0.3162 µM) | relative viability ([2]; first compound 1 µM) | relative viability ([3]; first compound 0.01 µM) | relative viability ([3]; first compound 0.03162 µM) | relative viability ([3]; first compound 0.1 µM) | relative viability ([3]; first compound 0.3162 µM) | relative viability ([3]; first compound 1 µM) | relative viability ([4]; first compound 0.01 µM) | relative viability ([4]; first compound 0.03162 µM) | relative viability ([4]; first compound 0.1 µM) | relative viability ([4]; first compound 0.3162 µM) |
| --- | --- | --- | --- | --- | --- | --- | --- | --- | --- | --- | --- | --- | --- | --- | --- | --- | --- | --- | --- |
| NCI-H1793 | 0.349 | 0.333 | 0.363 | 0.472 | 0.458 | 0.684 | 0.964 | 0.712 | 0.76 | 0.717 | 0.453 | 0.38 | 0.376 | 0.288 | 0.364 | 0.851 | 0.875 | 0.663 | 0.474 |
| NCI-H1915 | 0.29 | 0.324 | 0.289 | 0.304 | 0.275 | 1.04 | 1.07 | 1.04 | 1.07 | 0.874 | 0.359 | 0.37 | 0.365 | 0.386 | 0.398 | 0.492 | 0.496 | 0.49 | 0.568 |
| NCI-H1944 | 0.426 | 0.414 | 0.375 | 0.454 | 0.406 | 0.881 | 0.892 | 0.742 | 0.927 | 0.819 | 0.217 | 0.222 | 0.221 | 0.202 | 0.177 | 0.565 | 0.448 | 0.501 | 0.492 |
| NCI-H1975 | 0.344 | 0.316 | 0.313 | 0.304 | 0.359 | 0.602 | 0.663 | 0.605 | 0.642 | 0.61 | 0.419 | 0.402 | 0.389 | 0.429 | 0.409 | 0.752 | 0.754 | 0.685 | 0.77 |
| NCI-H1993 | 0.509 | 0.512 | 0.56 | 0.505 | 0.501 | 0.682 | 0.629 | 0.688 | 0.737 | 0.709 | 0.486 | 0.513 | 0.493 | 0.533 | 0.499 | 0.84 | 0.704 | 0.728 | 0.66 |
| NCI-H2009 | 0.325 | 0.296 | 0.308 | 0.223 | 0.235 | 1.12 | 1.19 | 1.06 | 1.18 | 1.07 | 0.497 | 0.488 | 0.46 | 0.4 | 0.408 | 0.735 | 0.672 | 0.746 | 0.715 |
| NCI-H2023 | 0.549 | 0.556 | 0.53 | 0.594 | 0.494 | 0.627 | 0.655 | 0.594 | 0.725 | 0.635 | 0.407 | 0.415 | 0.409 | 0.441 | 0.376 | 0.698 | 0.676 | 0.62 | 0.516 |
| NCI-H2085 | – | 0.571 | 0.549 | 0.51 | 0.554 | 1.11 | 0.918 | 0.948 | 1.06 | 1.05 | 0.742 | 0.745 | 0.63 | 0.7 | 0.631 | 0.805 | 0.673 | 0.752 | 0.669 |
